Assay results from ChEMBL document CHEMBL1132139, “2-Naphthylcarbapenems: broad spectrum antibiotics with enhanced potency against MRSA” (1999).
Values after ≈ are worked out from the molar mass of the structure shown.

How the values were obtained:
[1] = biological target: T1, Dipeptidase 1 (Sus scrofa) (UniProt P22412); experiment: Dehydropeptidase-1 susceptibility.
T1 sequence (whole entry): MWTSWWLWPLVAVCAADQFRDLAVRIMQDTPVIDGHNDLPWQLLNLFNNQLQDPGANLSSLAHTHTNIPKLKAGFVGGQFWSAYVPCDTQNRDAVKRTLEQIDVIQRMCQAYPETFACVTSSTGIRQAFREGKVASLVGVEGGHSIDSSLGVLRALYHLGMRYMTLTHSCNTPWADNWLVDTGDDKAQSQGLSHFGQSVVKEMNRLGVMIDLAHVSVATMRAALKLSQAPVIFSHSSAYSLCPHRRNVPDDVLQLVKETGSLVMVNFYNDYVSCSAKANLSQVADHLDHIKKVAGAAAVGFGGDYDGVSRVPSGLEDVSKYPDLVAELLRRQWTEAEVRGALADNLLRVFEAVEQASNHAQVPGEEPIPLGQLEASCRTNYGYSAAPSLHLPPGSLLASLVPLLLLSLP

[2] = tested on: Enterococcus; experiment: Compound was evaluated for the antibacterial activity against Enterococcus as fold improvement in activity with respect to imipenem.; type: functional
[3] = tested on: Enterobacter; experiment: Compound was evaluated for the antibacterial activity against Enterobacter as fold improvement in activity with respect to imipenem.; type: functional
[4] = tested on: Escherichia coli; experiment: Compound was evaluated for the antibacterial activity against Escherichia coli as fold improvement in activity with respect to imipenem.; type: functional
[5] = tested on: Klebsiella; experiment: Compound was evaluated for the antibacterial activity against Klebsiella.8 as fold improvement in activity with respect to imipenem.; type: functional
[6] = tested on: Pseudomonas aeruginosa; experiment: Compound was evaluated for the antibacterial activity against Pseudomonas aeruginosa as fold improvement in activity with respect to imipenem.; type: functional
[7] = tested on: Staphylococcus aureus; experiment: Compound was evaluated for the anti-MRSA activity as MIC50; type: functional
[8] = tested on: Staphylococcus aureus; experiment: Compound was evaluated for the anti-MRSA activity as MIC90.; type: functional
[9] = tested on: Staphylococcus aureus; experiment: Compound was evaluated for the antibacterial activity against methicillin-resistant Staphylococcus aureus (MRSA)as fold improvement in activity with respect to imipenem.; type: functional
[10] = Compound was evaluated for the antibacterial activity against methicillin-resistant coagulase-negative staphylococci (MRCNS)as fold improvement in activity with respect to imipenem.; type: functional, Staphylococcus […]
[11] = tested on: Staphylococcus aureus; experiment: Compound was evaluated for the antibacterial activity against methicillin-sensitive Staphylococcus aureus (MSSA)as fold improvement in activity with respect to imipenem.; type: functional
[12] = tested on: Serratia; experiment: Compound was evaluated for the antibacterial activity against Serratia as fold improvement in activity with respect to imipenem.; type: functional
[13] = tested on: Proteus; experiment: Compound was evaluated for the antibacterial activity against Proteus as fold improvement in activity with respect to imipenem.; type: functional, Proteus sp.
[14] = tested on: coagulase-negative Staphylococcus; experiment: Compound was evaluated for the anti-MRCNS activity as MIC50.
[15] = tested on: Enterococcus; experiment: Compound was evaluated for the antibacterial activity against Enterococcus.; type: functional
[16] = tested on: Escherichia coli; experiment: Compound was evaluated for the antibacterial activity against Escherichia coli.; type: functional
[17] = tested on: Enterobacter; experiment: Compound was evaluated for the antibacterial activity against Enterobacter.; type: functional
[18] = tested on: Klebsiella; experiment: Compound was evaluated for the antibacterial activity against Klebsiella.8.; type: functional
[19] = tested on: Pseudomonas aeruginosa; experiment: Compound was evaluated for the antibacterial activity against Pseudomonas aeruginosa.; type: functional
[20] = tested on: Serratia; experiment: Compound was evaluated for the antibacterial activity against Serratia.; type: functional
[21] = tested on: Staphylococcus aureus; experiment: Compound was evaluated for the antibacterial activity against methicillin-resistant coagulase-negative staphylococci (MRCNS).; type: functional
[22] = tested on: Staphylococcus aureus; experiment: Compound was evaluated for the antibacterial activity against methicillin-sensitive Staphylococcus aureus (MSSA).; type: functional
[23] = tested on: Proteus; experiment: Compound was evaluated for the antibacterial activity against Proteus; type: functional, Proteus sp.
[24] = tested on: Staphylococcus aureus; experiment: Compound was evaluated for the antibacterial activity against methicillin-resistant Staphylococcus aureus (MRSA).; type: functional
[25] = tested on: Klebsiella; experiment: Compound was evaluated for the antibacterial activity against Klebsiella as fold improvement in activity with respect to imipenem.; type: functional

SMILES	Activity [1]	Activity [2]	Activity [3]	Activity [4]	Activity [5]	Activity [6]	MIC50 [7] [µg/mL]	MIC90 [8] [µg/mL]	Activity [9]	Activity [10]	Activity [11]	Activity [12]	Activity [13]	MIC50 [14] [µg/mL]	also measured
C[C@H](O)[C@H]1C(=O)N2C(C(=O)[O-])=C(c3cccc(-c4ccc(C[n+]5ccccc5N)cc4)c3)C[C@H]12	0.04	6.2	0.04	0.11	0.04	0.01	1 (≈ 2.2 µM)	2 (≈ 4.39 µM)	154	232	0.43	0.11	0.38	2 (≈ 4.39 µM)	–
CC(O)C1C(=O)N2C(C(=O)O)=C(c3ccc4ccccc4c3)CC12 (configuration not stated)	0.09	2.6	0.1	0.31	0.08	0.01	–	–	3.3	2.7	0.5	0.09	2.8	–	–
C[C@@H](O)[C@H]1C(=O)N2C(C(=O)[O-])=C(c3ccc4ccc(C[n+]5ccc(N)cc5)cc4c3)C[C@H]12	0.07	4.9	0.17	0.33	0.25	0.01	–	–	16	55	0.53	0.97	3.2	–	–
C[C@@H](O)[C@H]1C(=O)N2C(C(=O)O)=C(SCCNC=N)C[C@H]12 [IMIPENEM ANHYDROUS]	1	–	–	–	–	–	32 (≈ 107 µM)	64 (≈ 214 µM)	–	–	–	–	–	128 (≈ 428 µM)	MIC [15]: 1.8 µg/mL (≈ 6.01 µM); MIC [16]: 0.19 µg/mL (≈ 0.635 µM); MIC [17]: 0.18 µg/mL (≈ 0.601 µM); MIC [18]: 0.29 µg/mL (≈ 0.969 µM); MIC [19]: 0.36 µg/mL (≈ 1.2 µM); MIC [20]: 0.29 µg/mL (≈ 0.969 µM); MIC [21]: 70 µg/mL (≈ 234 µM); MIC [22]: 0.01 µg/mL (≈ 0.0334 µM); MIC [23]: 0.69 µg/mL (≈ 2.3 µM); MIC [24]: 33 µg/mL (≈ 110 µM)
C[C@@H](O)[C@H]1C(=O)N2C(C(=O)[O-])=C(c3ccc4cccc(C[n+]5ccc(N)cc5)c4c3)C[C@H]12	0.01	2.4	0.03	0.09	0.04	0.01	8 (≈ 18.6 µM)	8 (≈ 18.6 µM)	20	40	0.15	0.07	0.48	16 (≈ 37.3 µM)	–
C[C@@H](O)[C@H]1C(=O)N2C(C(=O)[O-])=C(c3ccc4cc(C[n+]5ccccc5N)ccc4c3)C[C@H]12	0.2	4.4	0.85	1.4	0.38	0.02	2 (≈ 4.66 µM)	4 (≈ 9.31 µM)	28	323	0.39	2	5	8 (≈ 18.6 µM)	–
C[C@@H](O)[C@H]1C(=O)N2C(C(=O)[O-])=C(c3ccc4cc(C[n+]5cccc(N)c5)ccc4c3)C[C@H]12	0.15	2.3	0.64	1.3	0.43	0.02	–	–	13	44	0.53	3	6.5	–	–
CN[C@H](CC(C)C)C(=O)N[C@H]1C(=O)N[C@@H](CC(N)=O)C(=O)N[C@H]2C(=O)N[C@H]3C(=O)N[C@H](C(=O)N[C@H](C(=O)O)c4cc(O)cc(O)c4-c4cc3ccc4O)[C@H](O)c3ccc(c(Cl)c3)Oc3cc2cc(c3O[C@@H]2O[C@H](CO)[C@@H](O)[C@H](O)[C@H]2O[C@H]2C[C@](C)(N)[C@H](O)[C@H](C)O2)Oc2ccc(cc2Cl)[C@H]1O [VANCOMYCIN]	–	–	–	–	–	–	2 (≈ 1.38 µM)	2 (≈ 1.38 µM)	–	–	–	–	–	4 (≈ 2.76 µM)	–
C[C@@H](O)[C@H]1C(=O)N2C(C(=O)[O-])=C(c3cc(C[n+]4cccc(N)c4)c4ccccc4c3)C[C@H]12	0.01	3.2	0.02	0.09	0.01	0.01	–	–	6.9	12	0.39	0.03	0.13	–	–
C[C@H](O)[C@H]1C(=O)N2C(C(=O)[O-])=C(c3cc(C[n+]4ccccc4N)c4ccccc4c3)C[C@H]12	0.01	2.2	0.01	0.04	0.02	0.01	–	–	1.4	1.9	0.13	0.02	0.1	–	–
C[C@@H](O)[C@H]1C(=O)N2C(C(=O)[O-])=C(c3ccc4cc(C[n+]5ccc(N)cc5)ccc4c3)C[C@H]12	0.26	2.7	0.92	1.4	–	0.02	4 (≈ 9.31 µM)	8 (≈ 18.6 µM)	18	77	0.45	1.8	10	8 (≈ 18.6 µM)	Activity [25]: 0.4
C[C@@H](O)[C@H]1C(=O)N2C(C(=O)[O-])=C(c3ccc4c(C[n+]5ccc(N)cc5)cccc4c3)C[C@H]12	0.03	2.7	0.18	0.4	0.21	0.02	–	–	12	77	0.42	0.69	15	–	–
C[C@@H](O)[C@H]1C(=O)N2C(C(=O)[O-])=C(c3ccc4cccc(C[n+]5ccccc5N)c4c3)C[C@H]12	0	2.1	0.01	0.04	0.03	0.02	–	–	4.9	8	0.1	0.05	0.22	–	–
C[C@@H](O)[C@H]1C(=O)N2C(C(=O)[O-])=C(c3ccc(C[n+]4ccccc4N)cc3)C[C@H]12	0.11	12.9	3	1.7	1.1	0.02	–	–	2	1.6	0.5	4.4	4.2	–	–
C[C@H](O)[C@H]1C(=O)N2C(C(=O)[O-])=C(c3cc(C[n+]4ccc(N)cc4)c4ccccc4c3)C[C@H]12	0.01	2.2	0.02	0.06	0.02	0.01	–	–	11	24	0.42	0.02	0.19	–	–
